Assay results reported in patent publication US6346201B1, “Ozonated solutions of tetrasilver tetroxide” (priority 2000, dated 2002).
Read-outs that look alike come from different tables or passages of the source.

Key:
Bacillus subtilis spores = assay: Bacillus subtilis spore survival by MALS, AODC and 24-hour CFU count; format: cell-based
Experimental: The efficacy of ozone in the absence of tetrasilver tetroxide was evaluated by challenging Bacillus subtilis spores with 2 ppm ozone and measuring the survival rate over time by MALS, acridine orange direct counts (AODC) and by counting colony forming units (CFU) at 24 hours.
Bacillus subtilus spore suspensions in water were challenged with 2 ppm tetrasilver tetroxide and […] ozone to evaluate the killing efficacy of the combination. The survival rate over time was measured by MALS, AODC and counting colony forming units at 24 hours.

E. coli = assay: Ozone kill of E. coli test culture; format: cell-based; conditions: 3.2 ppm ozone, 1 minute
Experimental: (§1) Ozone is, of course, effective against enteric pathogens. For example, adding 3.2 ppm 03 to a test culture kills 1.95×10^6 cells/mL of E. coli in 1 minute and kills 1.5×10^6 cells/mL of P. aeruginosa in 1 minute.

P. aeruginosa = assay: Ozone kill of P. aeruginosa test culture; format: cell-based; conditions: 3.2 ppm ozone, 1 minute
Experimental: as §1

[1] = Experimental: Ozone concentrations were measured by a chemical oxidation of indigo dye by using an indigo dye […] manufactured by HACH, Inc.
6.1 mg/L (6.1 ppm) of ozone was provided in deionized, distilled water over a 15 minute period. The solution was allowed to stand with stirring by a magnetic stirrer over a 24-hour period, taking periodic readings of the ozone concentration.

E. coli K12 = conditions: 10 ppm or less tetrasilver tetroxide, within 30 minutes, other studies; cited from earlier work
[2] = B. subtilis spores, 2 ppm ozone, treatment time 0
[3] = B. subtilis spores, 2 ppm ozone, treatment time 5
[4] = B. subtilis spores, 2 ppm ozone, treatment time 10
[5] = B. subtilis spores, 2 ppm ozone, treatment time 15
[6] = B. subtilis spores, 2 ppm ozone, treatment time 20
[7] = B. subtilis spores, 2 ppm ozone, treatment time 30

O=[O+][O-] [ozone]
MALS log intensity vs time of exposure (FIG. 1) (Bacillus subtilis spores; B. subtilis spores, 2 ppm ozone, increasing time of exposure): reduction in the log intensity
24-Hour Count (Bacillus subtilis spores; [2]): 2.10 × 10^6 cfu/mL
24-Hour Count % AODC (Bacillus subtilis spores; [2]): 100 % AODC
24-Hour Count % control (Bacillus subtilis spores; [2]): 100 % control
AODC (Bacillus subtilis spores; [2]): 2.34 × 10^6 spores/mL
AODC % control (Bacillus subtilis spores; [2]): 100 % control
MALS % control (Bacillus subtilis spores; [2]): 100 % control
MALS intensity (Bacillus subtilis spores; [2]): 2436.6
24-Hour Count (Bacillus subtilis spores; [3]): 1.23 × 10^6 cfu/mL
24-Hour Count % AODC (Bacillus subtilis spores; [3]): 76.9 % AODC
24-Hour Count % control (Bacillus subtilis spores; [3]): 58.5 % control
AODC (Bacillus subtilis spores; [3]): 1.6 × 10^6 spores/mL
AODC % control (Bacillus subtilis spores; [3]): 68.3 % control
MALS % control (Bacillus subtilis spores; [3]): 65.33 % control
MALS intensity (Bacillus subtilis spores; [3]): 1591.92
24-Hour Count (Bacillus subtilis spores; [4]): 1.68 × 10^5 cfu/mL
24-Hour Count % AODC (Bacillus subtilis spores; [4]): 14.5 % AODC
24-Hour Count % control (Bacillus subtilis spores; [4]): 8.0 % control
AODC (Bacillus subtilis spores; [4]): 1.16 × 10^6 spores/mL
AODC % control (Bacillus subtilis spores; [4]): 49.5 % control
MALS % control (Bacillus subtilis spores; [4]): 51.89 % control
MALS intensity (Bacillus subtilis spores; [4]): 1264.26
24-Hour Count (Bacillus subtilis spores; [5]): 1.80 × 10^3 cfu/mL
24-Hour Count % AODC (Bacillus subtilis spores; [5]): 0.14 % AODC
24-Hour Count % control (Bacillus subtilis spores; [5]): 0.09 % control
AODC (Bacillus subtilis spores; [5]): 1.29 × 10^6 spores/mL
AODC % control (Bacillus subtilis spores; [5]): 55.1 % control
MALS % control (Bacillus subtilis spores; [5]): 42.67 % control
MALS intensity (Bacillus subtilis spores; [5]): 1039.64
24-Hour Count (Bacillus subtilis spores; [6]): 1.82 × 10^2 cfu/mL
24-Hour Count % AODC (Bacillus subtilis spores; [6]): 0.04 % AODC
24-Hour Count % control (Bacillus subtilis spores; [6]): 0.009 % control
AODC (Bacillus subtilis spores; [6]): 4.87 × 10^5 spores/mL
AODC % control (Bacillus subtilis spores; [6]): 20.8 % control
MALS % control (Bacillus subtilis spores; [6]): 34.94 % control
MALS intensity (Bacillus subtilis spores; [6]): 851.5
24-Hour Count (Bacillus subtilis spores; [7]): 10 cfu/mL
24-Hour Count % AODC (Bacillus subtilis spores; [7]): 0.002 % AODC
24-Hour Count % control (Bacillus subtilis spores; [7]): 0.00005 % control
AODC (Bacillus subtilis spores; [7]): 5.03 × 10^5 spores/mL
AODC % control (Bacillus subtilis spores; [7]): 21.5 % control
MALS % control (Bacillus subtilis spores; [7]): 27.96 % control
MALS intensity (Bacillus subtilis spores; [7]): 681.2
antimicrobial effect (MALS graph, FIG. 3) (Bacillus subtilis spores; twenty-minute treatment with 0.3 ppm ozone): significant killing effect
cells killed (E. coli): 1.95×10^6 cells/mL
cells killed (P. aeruginosa): 1.5×10^6 cells/mL
ozone at 18 hours relative to that expected in the absence of tetrasilver tetroxide ([1]; 2 ppm tetrasilver tetroxide added, 18 hours): approximately an order of magnitude higher
ozone concentration ([1]; 2 ppm tetrasilver tetroxide added, after 18 hours): 0.12 ppm
ozone oxidizing activity ([1]; 2 ppm tetrasilver tetroxide added, by 24 hours): 0.03 ppm
half-life of ozone ([1]; 6.1 ppm ozone initially in deionized, distilled water, no tetrasilver tetroxide): approximately 2 hours
ozone concentration ([1]; 6.1 ppm ozone initially in deionized, distilled water, stirred, by 2 hours): 3 ppm
ozone concentration ([1]; 6.1 ppm ozone initially in deionized, distilled water, stirred, by 18 hours): 0.01 ppm

[Ag+].[Ag+].[Ag+].[Ag+].[O-2].[O-2].[O-2].[O-2] [tetrasilver tetroxide]
antimicrobial effect (MALS graph, FIG. 3) (Bacillus subtilis spores; sixty-minute treatment with 2 ppm tetrasilver tetroxide): little more effective than the untreated control
measurable oxidation as measured by the indigo dye method ([1]; without ozone): neither
kills % of E. coli K12 strain (E. coli K12): 100%
